# Assay results reported in article PMC6445163, “Design, synthesis, and evaluation of novel 2-phenylpropionic acid derivatives as dual COX inhibitory-antibacterial agents” (Journal of Enzyme Inhibition and Medicinal Chemistry, 2017).
# Experiments:
# COX-1 [1] = target: T1, COX-1 (Ovis aries, UniProt P05979); test: enzyme kinetics (Lineweaver-Burk), arachidonic acid substrate; assay type: biochemical; conditions: for mode of inhibition: Lineweaver-Burk plot analysis; for Ki: secondary plot of slope versus inhibitor concentration, read-out: Ki (steady-state inhibition constant)
# T1 construct: purchased Biovision K548-100
# T1 sequence (P05979 25-600): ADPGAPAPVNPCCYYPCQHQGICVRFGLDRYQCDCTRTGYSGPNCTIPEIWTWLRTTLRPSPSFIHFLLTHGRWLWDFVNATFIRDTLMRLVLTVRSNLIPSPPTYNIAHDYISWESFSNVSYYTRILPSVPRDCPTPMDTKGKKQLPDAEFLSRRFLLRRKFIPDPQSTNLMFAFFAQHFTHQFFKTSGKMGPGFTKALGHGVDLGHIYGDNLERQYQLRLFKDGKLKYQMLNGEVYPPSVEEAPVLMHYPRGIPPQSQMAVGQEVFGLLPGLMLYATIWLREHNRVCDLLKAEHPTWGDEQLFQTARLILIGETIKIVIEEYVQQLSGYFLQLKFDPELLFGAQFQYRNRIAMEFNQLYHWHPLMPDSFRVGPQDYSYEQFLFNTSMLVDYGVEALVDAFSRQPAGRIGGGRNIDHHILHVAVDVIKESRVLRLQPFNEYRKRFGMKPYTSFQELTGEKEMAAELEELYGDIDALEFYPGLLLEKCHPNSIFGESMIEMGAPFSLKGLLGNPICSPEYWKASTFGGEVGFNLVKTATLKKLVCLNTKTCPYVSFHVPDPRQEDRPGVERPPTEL
# Description: The mode of inhibition was determined by following the Lineweaver–Burk double reciprocal plot analysis of the data and calculated as per the Michaelis–Menten kinetics. To understand the possible mode of action, Km and Vmax were also calculated. The slopes of the Lineweaver–Burk plots were plotted versus the inhibitor concentration, and the Ki values were determined from the x-axis intercept as inhibition constant − Ki. […] The kinetic parameters of this study were determined based on Michaelis–Menten equation followed by a Lineweaver–Burk double reciprocal analysis of data set regarding […] versus 1/[S] plot.
# MTT cytotoxicity test = conditions: mouse, NIH/3T3 mouse embryonic fibroblast cells
# Description: (§1) NIH/3T3 cells were incubated according to the supplier’s recommendations. NIH/3T3 cells were seeded at 1 × 10^4 cells into each well of 96-well plates. MTT assay was performed as previously described[51]^,[52].
# (§2) There are a number of requirements to be fulfilled for successful new drug development. […] This assay is based upon the reduction of yellow MTT dye by metabolically active eukaryotic and prokaryotic cells to form the purple formazan product. The assay is generally used to examine cell viability and to estimate cell culture growth[66]^,[67].
# [2] = test system: NIH/3T3 mouse embryonic fibroblast cell line; test: MTT cytotoxicity test
# Description: as §1, §2
# COX-2 = target: T2, COX-2 (Homo sapiens, UniProt P35354); test: fluorometric COX-2 inhibitor screening kit assay; assay type: biochemical; conditions: 25 °C
# T2 construct: purchased Biovision K547-100
# T2 sequence (P35354 18-604): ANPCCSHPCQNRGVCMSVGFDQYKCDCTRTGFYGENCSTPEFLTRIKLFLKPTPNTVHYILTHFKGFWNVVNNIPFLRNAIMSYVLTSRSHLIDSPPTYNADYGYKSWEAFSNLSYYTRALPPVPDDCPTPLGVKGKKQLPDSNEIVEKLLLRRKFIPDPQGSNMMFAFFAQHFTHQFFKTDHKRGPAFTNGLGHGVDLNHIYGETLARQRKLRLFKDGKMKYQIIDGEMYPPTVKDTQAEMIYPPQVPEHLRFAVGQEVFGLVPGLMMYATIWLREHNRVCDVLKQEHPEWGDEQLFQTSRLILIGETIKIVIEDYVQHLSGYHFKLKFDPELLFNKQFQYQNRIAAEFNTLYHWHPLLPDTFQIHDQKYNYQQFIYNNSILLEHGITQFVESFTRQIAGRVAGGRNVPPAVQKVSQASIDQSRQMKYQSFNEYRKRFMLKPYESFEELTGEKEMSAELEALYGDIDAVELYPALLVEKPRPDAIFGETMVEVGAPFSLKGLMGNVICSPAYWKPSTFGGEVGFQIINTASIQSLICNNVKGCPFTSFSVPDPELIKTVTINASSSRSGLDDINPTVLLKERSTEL
# Description: (§3) Inhibitory potency of the compounds against COX-1 and COX-2 enzymes was determined using fluorometric COX-1 and COX-2 inhibitor screening kits (Biovision, Zurich, Switzerland). Experimental protocol was followed as described in the guides of the supplier[47]^,[48]. All of the pipettings in the assay were performed by Biotek Precision robotic system (BioTek Instruments, Inc., Winooski, VT). […] Appropriate two points (T1 and T2) in the linear range of the plot were chosen, and the corresponding fluorescence values (RFU1 and RFU2) were obtained. The slope for all samples, including enzyme control (EC), by dividing the net ΔRFU (RFU2–RFU1) values by the time ΔT (T2–T1) were calculated by using following equation: % Relative inhibition=(Slope of EC-Slope of S/Slope of EC)×100
# (§4) This initial in vitro assay was done with two concentrations (10^−3 and 10^−4 M) for all compounds. […] The IC50 value was calculated from the plots of enzyme activity against concentrations by applying regression analyses on GraphPad Prism Version 5 (GraphPad Software, La Jolla, CA).
# (§5) Selectivity indexes (SI) were expressed as IC50 (COX-1)/IC50 (COX-2). Selectivity toward COX-2 decreases as the corresponding SI decreases while selectivity toward COX-1 isoform increases as the corresponding SI decreases.
# COX-1 [3] = target: T1, COX-1; test: fluorometric COX-1 inhibitor screening kit assay; assay type: biochemical; conditions: for SI (selectivity index): IC50 (COX-1)/IC50 (COX-2); for IC50: fluorometric kit, 25 °C; for Selectivity: isoform preferred according to SI
# Description: as §3, §4, §5
SMILES,Vmax value of the competitive inhibition (COX-1 [1]) [nmol/min/mg protein],mode of inhibition (COX-1 [1]),Ki (COX-1 [1]) [µM],melting point [°C],IC50 (MTT cytotoxicity test) [µM],fold by which IC50 against COX enzymes is lower than IC50 against NIH/3T3 cells [2],IC50 (COX-2) [µM],SI (selectivity index) (COX-1 [3]),IC50 (COX-1 [3]) [µM],Selectivity (COX-1 [3])
"COc1ccc2sc(SCc3ccc(C(C)C(=O)O)cc3)nc2c1 (centres unmarked) [Compound 6h, 2-(4-(((5-Methoxybenzo[d]thiazol-2-yl)thio)methyl)phenyl)propanoic acid]",0.830 ± 0.011,competitive,2.07,166.5 to 168.2,≥ 1000,about 500 fold,2.96,0.59,1.76,COX-1
"COc1ccc2[nH]c(SCc3ccc(C(C)C(=O)O)cc3)nc2c1 (centres unmarked) [Compound 6l, 2-(4-(((5-Methoxy-1H-benzo[d]imidazol-2-yl)thio)methyl)phenyl)propanoic acid]",0.669 ± 0.003,competitive,1.7,175.6 to 178.4,≥ 1000,about 500 fold,2.34,0.60,1.4,COX-1
